According to US20220040212A1, “ORAL REHYDRATION COMPOSITION WITH OLIGOSACCHARIDES” (ABBOTT LABORATORIES, priority 2013, published 2022):
Values joined by “and” are separate entries in the source; they are usually repeats but may differ in a detail not shown here. Equal entries are not always repeated.

What was measured:
[1] = Stability of 2′-FL, LNnT and 6′-SL in an ORC over time (0 D to 14 weeks); type: physicochemical; conditions: for LNnT / Lactose / % Remaining * (LNnT) / % Remaining ** (LNnT): LNnT ORC pH 3.5; for % Remaining * (LNnT): vs target fortification
Experimental: Another study was performed to determine the stability of 2′-FL, LNnT, and 6′-SL in an ORC over time (e.g., 1 week, 3 weeks, 6 weeks, and 14 weeks).
Sample Preparation: A master batch with a pH of 4.25 is sub-divided. The oligosaccharides are added to the respective ORC in an amount of 0.2 g/L for 2′-FL and 6′-SL, LNnT was fortified in an amount of 0.256 g/L. The pH was then adjusted from 4.25 to 3.5 by addition of citric acid. Prior to sterilization, samples are collected to evaluate oligosaccharide levels. The formulas were then delivered into 1 L bottles and subjected to heat sterilization and allowed to cool to room temperature.
The data on day 0 was collected in duplicate for samples prior to sterilization (unsterile) and after sterilization (sterile), thereafter the data was collected only on the sterilized samples. […] The slight fluctuation in lactose and lactulose levels are likely due to method variability.
The data on day 0 was collected in duplicate for samples prior to sterilization (unsterile) and after sterilization (sterile), thereafter the data was collected only on the sterilized samples.
The data on day 0 was collected in duplicate for samples prior to sterilization (unsterile) and after sterilization (sterile), thereafter the data was collected only on the sterilized samples. […] At 14 weeks, the concentration was 2.3% of the target fortification amount.

[2] = Stability of oligosaccharides in oral rehydration solution, before/after retort sterilization and 3 weeks after (HPAEC); type: physicochemical; conditions: for LNnT / Lactose / % Theoretical LNnT: LNnT sample, pH 3.5; for % Theoretical LNnT: fortification 0.256 g/L
Experimental: A study was conducted to determine the relative stabilities of GOS, FOS, 2′-FL, 6′-SL, and LNnT in an oral rehydration solution. A master batch of product was prepared (shown in Table 1), the pH adjusted to approx. 4.25, and subsequently divided into five sub-batches.
Oligosaccharide ingredients were added to each of the sub-batches in amounts shown Table 2, and the pH of each sub-batch was subsequently adjusted to 3.5 with citric acid. The solutions were filled into 1 L plastic bottles, capped and retorted with a cook temperature of 217° F. for 25 minutes. Duplicate samples were collected immediately prior to sterilization and within 24 h after sterilization. Prior to sample analysis, the unsterile samples were stored at refrigerated temperature (˜40° F.) and the sterilized samples were held ambient temperature.
Samples were analyzed by HPAEC using a Dionex ICS3000 Ion Chromatography System (Thermo Scientific, Inc., Sunnyvale, Calif.) equipped with a pulsed amperometric detector comprised of a AgCl reference electrode, gold working electrode, and CarboPac PA1 guard (4×50 mm) and analytical columns (4×250 mm). Mobile phases were degassed and pressurized with 3 to 5 psi helium, and oligosaccharides eluted from the columns using various gradients detailed in Tables 3-5 at a flow rate of 1.0 mL/min. The column and detector were held at 20±2° C. Oligosaccharide identification and concentration were determined from quadratic fit (not forced through the origin) standard curves. […]
2′-FL fortification was calculated to be 0.2 g/L. Testing samples were reconstituted at 20 mL to 100 ml, with water, and then filtered using a 0.2 μm PES membrane syringe filter.
LNnT fortification was calculated to be 0.256 g/L. Testing samples were reconstituted at 20 mL to 100 ml, with water, and then filtered using a 0.2 μm PES membrane syringe filter.
6′-SL fortification was calculated to be 0.2 g/L. Testing samples were reconstituted at 20 mL to 100 mL with water, and then filtered using a 0.2 μm PES membrane syringe filter.

[3] = 3-week after sterilization, average
[4] = 3-week after sterilization, samples 1, 2
[5] = sterile (after retort 217° F. 25 min), samples 1, 2
[6] = sterile (after retort), average

LNnT ([1]; 0 D, sterile, average): 261 mg/L | Lactose ([1]; 0 D, sterile, average): 26.8 mg/L | % Remaining * (LNnT) ([1]; 0 D, sterile, average): 102% | LNnT ([1]; 0 D, sterile, samples 1, 2): 261 mg/L and 261.1 mg/L | Lactose ([1]; 0 D, sterile, samples 1, 2): 26.34 mg/L and 27.26 mg/L | % Remaining * (LNnT) ([1]; 0 D, sterile, samples 1, 2): 102.1% | LNnT ([1]; 0 D, unsterile, average): 258 mg/L | Lactose ([1]; 0 D, unsterile, average): 25.6 mg/L | % Remaining * (LNnT) ([1]; 0 D, unsterile, average): 101% | LNnT ([1]; 0 D, unsterile, samples 1, 2): 257.6 mg/L and 259.4 mg/L | Lactose ([1]; 0 D, unsterile, samples 1, 2): 25.78 mg/L and 25.46 mg/L | % Remaining * (LNnT) ([1]; 0 D, unsterile, samples 1, 2): 100.7% and 101.4% | % Remaining ** (LNnT) ([1]; 3 WK, sterile, average): 105% | LNnT ([1]; 3 WK, sterile, average): 269 mg/L | Lactose ([1]; 3 WK, sterile, average): 28.10 mg/L | % Remaining ** (LNnT) ([1]; 3 WK, sterile, samples 1, 2): 104.2% and 106% | LNnT ([1]; 3 WK, sterile, samples 1, 2): 266.5 mg/L and 271.0 mg/L | Lactose ([1]; 3 WK, sterile, samples 1, 2): 28.03 mg/L and 28.19 mg/L | % Remaining ** (LNnT) ([1]; 6 WK, sterile, average): 104% | LNnT ([1]; 6 WK, sterile, average): 267 mg/L | Lactose ([1]; 6 WK, sterile, average): 29.7 mg/L | % Remaining ** (LNnT) ([1]; 6 WK, sterile, samples 1, 2): 103.9% and 104.9% | LNnT ([1]; 6 WK, sterile, samples 1, 2): 265.8 mg/L and 268.4 mg/L | Lactose ([1]; 6 WK, sterile, samples 1, 2): 30.89 mg/L and 28.6 mg/L | % Remaining ** (LNnT) ([1]; 14 WK, sterile, average): 105% | LNnT ([1]; 14 WK, sterile, average): 269 mg/L | Lactose ([1]; 14 WK, sterile, average): 28 mg/L | % Remaining ** (LNnT) ([1]; 14 WK, sterile, samples 1, 2): 106.6% and 103.4% | LNnT ([1]; 14 WK, sterile, samples 1, 2): 272.7 mg/L and 264.3 mg/L | Lactose ([1]; 14 WK, sterile, samples 1, 2): 27.94 mg/L and 28.14 mg/L | Change of oligosaccharide level over the course of the study (in words) ([1]; ORC pH 3.5, heat sterilized, 0 D to 14 weeks): No substantial loss | Stability in the exemplary formulations (in words) [2]: enhanced stability | LNnT [2, 3]: 269 mg/L | Lactose [2, 3]: 28.1 mg/L | % Theoretical LNnT [2, 3]: 105% | LNnT [2, 4]: 266.5 mg/L and 271.0 mg/L | Lactose [2, 4]: 28.03 mg/L and 28.19 mg/L | % Theoretical LNnT [2, 4]: 104.2% and 106% | LNnT [2, 5]: 261 mg/L and 261.1 mg/L | Lactose [2, 5]: 26.34 mg/L and 27.26 mg/L | LNnT [2, 6]: 261 mg/L | Lactose [2, 6]: 26.8 mg/L | % Theoretical LNnT [2, 6]: 102% | % Theoretical LNnT ([2]; sterile (after retort), samples 1, 2): 102.1% | LNnT ([2]; unsterile, average): 258 mg/L | Lactose ([2]; unsterile, average): 25.6 mg/L | % Theoretical LNnT ([2]; unsterile, average): 101% | LNnT ([2]; unsterile, samples 1, 2): 257.6 mg/L and 259.4 mg/L | Lactose ([2]; unsterile, samples 1, 2): 25.78 mg/L and 25.46 mg/L | % Theoretical LNnT ([2]; unsterile, samples 1, 2): 100.7% and 101.4% | Further loss 3-weeks after sterilization, relative to sterilized sample (in words) ([2]; oral rehydration solution pH 3.5, 3-weeks after sterilization): no further loss | Loss of oligosaccharide during sterilization (in words) ([2]; oral rehydration solution pH 3.5, retort 217° F. 25 min): no decrease
Structure (SMILES): CC(=O)N[C@H]1[C@H](O[C@H]2[C@@H](O)[C@@H](CO)O[C@@H](O[C@H]3[C@H](O)[C@@H](O)C(O)O[C@@H]3CO)[C@@H]2O)O[C@H](CO)[C@@H](O[C@@H]2O[C@H](CO)[C@H](O)[C@H](O)[C@H]2O)[C@@H]1O (mixture of isomers) [LNnT, lacto-N-neotetraose]
